The results in this text go back to patent publication US6632794B1, “Insulin-like growth factor agonist molecules” (Genentech, Inc., priority 1997, dated 2003).

The subject of test [1] is Zucker Diabetic Fatty rats. Put plainly: IV bolus injection into diabetic rats, plasma glucose and insulin. Format: in vivo, rat. Conditions: ZDF rats, 100 μg IV; for fall in blood glucose: after 10 minutes. How it is done: Eighteen 7-week-old male Zucker Diabetic Fatty rats (250-300 g, Genetic Models Inc.) were anesthetized using KETAMINE™ (62.5 mg/kg)/ROMPUN XYLAZINE™ (12.5 mg/kg) anesthesia. The right jugular vein was cannulated using a silicone rubber catheter and the rats were allowed to recover.
Two days after surgery the rats (5-6/group) were divided into three treatment groups and given IV via the jugular catheter 200 μl of:
Three days later, using the same rats the study was repeated. The rats that were dosed with IGF-I in the initial study received the IGF mutant in the repeat study and vice versa. Control animals received PBS in both experiments.
Two blood samples were collected from each rat via the jugular cannula prior to IV dosing with the hormones and then blood samples were collected after 10, 30, 60, and 120 minutes. The plasma was immediately separated by centrifugation. The glucose concentration was measured by a coupled hexokinase procedure using a Chem 1A serum chemistry analyzer. Insulin concentration was measured using a rat insulin RIA kit (Linco Research, Inc., St. Charles, Mo.).
Statistical comparisons for each time point were made by an ANOVA with a Duncan's Multiple Range test. A p value of <0.05 was considered as being statistically significant. All data are represented as the mean±SEM, with five or six animals per treatment group.

In the next test the test system is dwarf rats. Put plainly: Long-term administration to GH-deficient dwarf (dw/dw) rats. It counts as in vivo, rat. Conditions: for retroperitoneal fat depot weight: at sacrifice; for AST / BUN / CK / Creatinine / Glucose / Insulin: serum at sacrifice, Means ± SEM. The text has this: Young female dwarf rats (11-12 wk of age, 115-140 g) were bred by homozygous mating (Charles Rivers Laboratories) and delivered to the Genentech Animal House where they were housed five per cage on polystyrene chips and fed a standard animal chow and water ad libitum, and kept in a room of constant humidity and with controlled temperature and lighting. The animals were weighed, and based on uniformity of body weight, 37 of the animals were selected and randomized into treatment groups and cages to give six treatment groups of equal initial body weights (approximately 120 g).
The study consisted of six groups of rats with six or seven rats per group.
The mutant (Leu^24,Ala^31)hIGF-I and native sequence recombinant human IGF-I were administered by osmotic minipumps (ALZET 2001™, Alza, Palo Alto, Calif.) which were placed in a subcutaneous tunnel in the dorsal neck region while the rats were anesthetized with KETAMINE/XYLAZINE™ anesthesia. The pumps were filled with solutions so that the calculated daily dose was 120 μg per rat per day (1 mg/kg/day), assuming that the pump delivered as per the manufacturer's description (24 μl of solution per day).
Recombinant human GH (50 μg/day) was administered for eight days by twice daily sc injection, with each injection being of 25 μg in a volume of 100 μl.
Body weights were measured daily in the morning. After 8 days the animals were anesthetized using CO2 and exsanguinated by cardiac puncture. The remaining blood was allowed to clot and serum was separated and stored for further analysis.
Spleen, thymus, heart, liver, kidney, and perirenal fat were removed and weighed. The tibia was removed and fixed in neutral buffered formalin for histological measurement of epiphyseal plate width.
Serum chemistries were measured using a TECHNICON CHEM I PLUS™ analyzer. Serum insulin concentration was measured using an RIA kit supplied by Linco, Inc. To measure the IGF-I concentrations the serum was extracted using acid ethanol and the supernatant diluted to neutrality and assayed for IGF-I by RIA. The concentration of rat IGF-I in serum extract was measured by RIA using a kit from Diagnostic Systems Laboratories, Inc. Human IGF-I concentration was measured by RIA at Genentech, Inc.
Tibia were sectioned longitudinally, stained with TOLULENE BLUE™ stain and mounted on microscope slides. The tibial epiphyseal plate width was measured using an ocular micrometer attached to a microscope.
Data were analyzed statistically by analysis of variance using one-factor ANOVA followed by Duncan's Range Test.

In the next test the test system is mouse 3T3 cells. As to the kind of experiment: ^3H-thymidine incorporation into mouse 3T3 cells. Format: cell-based. How it is done:
Assay 2: Increase in Cell Number of Mouse 3T3 Cells
The activity of the IGF mutant was also measured in a bioassay for the activity of IGF-I on DNA synthesis and cell replication. In this assay mouse 3T3 cells are cultured, and the IGF mutant or IGF-I is added, followed by tritiated ^3H-thymidine. The amount of ^3H-thymidine incorporated is a measure of the replication of DNA and thus of cell replication.
On the technique in general: Dividing cells build labelled thymidine or BrdU into new DNA.

The next test has as its system male Wistar rats. Put plainly: IV injection into conscious normal rats, plasma glucose and insulin. It counts as in vivo, rat. Conditions: 100 μg IV; for fall in blood glucose / plasma insulin response: after 10 mins. How it is done:
Seven week old male Wistar rats (240-250 g, Charles Rivers Laboratories, Hollister, Calif.) were anesthetized with KETAMINE/XYLAZINE™ anesthesia and the right jugular vein was cannulated with a silicone rubber cannula that was developed for chronic blood sampling. Clark et al., J. Endocrinol., 111: 27-35 (1986). Following a two- to three-day recovery period, two basal blood samples were taken at −10 and −5 minutes, the test substances administered to the rats by IV injection, and then blood samples collected after 5, 10, 20, 30, 45, 60, and 120 minutes, and the plasma was immediately separated by centrifugation. The glucose and insulin concentrations were subsequently determined either by a coupled hexokinase procedure using a Chem 1A serum chemistry analyzer or, in the later case, a rat insulin RIA kit (Linco Research, Inc., St. Charles, Mo.).
Statistical comparisons were made by an analysis of variance (ANOVA) with a Duncan's Multiple Range test. A p value of <0.05 was considered as being statistically significant. All data are represented as the mean±SEM.
Two treatment groups, with five rats per group, were dosed IV with either (Leu^24,Ala^31)hIGF-I (100 μg) or PBS.
The rats in three treatment groups, with 4-5 rats per group, were dosed IV with either (Leu^24,Ala^31)hIGF-I (100 μg) or rhIGF-I (100 μg) and a control group was given PBS.

Where [2] appears, read: Day one, 120 μg/day each by pump.

In the case of “IGF-I: native-sequence recombinant human insulin-like growth factor-I (Genentech)”, in test [1] (Study One), the plasma insulin response entry is “large, and maintained fall in plasma insulin”; the “fall in blood glucose” value is “immediate, moderate, and statistically significant”. Further, in test [1] (Study Two), the plasma insulin response entry is “large, and maintained fall in plasma insulin”; the “fall in blood glucose” value is “immediate, moderate, and statistically significant”. In addition, in the test with dwarf rats (8 days), the epiphyseal plate widths entry is “significantly (p<0.05) increased”, the AST is on record as 128 ± 11 U/l, the BUN came out at 16.0 ± 0.7 mg/dL and the CK worked out at 225 ± 18 u/l. In the test with dwarf rats (8 days), the Creatinine turned out to be 0.22 ± 0.05 mg/dL, the Glucose came out at 190 ± 24 mg/dL and the Insulin is 0.54 ± 0.06 ng/mL. The body weight gain with dwarf rats (setting [2]) is 1.2 ± 0.4 g. In the test on dwarf rats (120 μg/day each by pump), the “retroperitoneal fat depot weight” value came out at 0.48 ± 0.06 g. Also, the “^3H-thymidine incorporation” value with mouse 3T3 cells is given as “increased thymidine incorporation in a dose-related manner”. Besides, in the test on male Wistar rats (Study Two), the “time plasma insulin remained depressed” value was 120 min, the “fall in blood glucose” value is on record as “brief but statistically significant fall in blood glucose” and the plasma insulin response result is recorded as “decreased significantly”.
For (Leu^24,Ala^31)hIGF-I, in test [1] (Study One), the plasma insulin response entry is “suppressed blood insulin concentrations” and the “fall in blood glucose” value is given as “smaller, but statistically significant”. In the test with dwarf rats (8 days), the “blood levels of endogenous rat IGF-I” value is on record as “lower”; the epiphyseal plate widths result is on record as “increased the mean plate widths compared to the individual treatments, but these increases did not reach statistical significance”; the AST is 143 ± 8 U/l; the BUN turned out to be 17.8 ± 0.4 mg/dL. For the same substance, in the test with dwarf rats (8 days), the CK is on record as 301 ± 44 u/l, the Creatinine was 0.23 ± 0.03 mg/dL, the Glucose amounted to 174 ± 18 mg/dL and the Insulin stood at 0.88 ± 0.09 ng/mL. This substance returned an absolute spleen weight in the test on dwarf rats (8 days, 120 μg/day by pump) of 350 ± 14 mg. In the test with dwarf rats (setting [2]), this substance gave a body weight gain of 0.5 ± 0.6 g. The “retroperitoneal fat depot weight” value in the test on dwarf rats (120 μg/day each by pump) was determined as 0.53 ± 0.10 g. Besides, the body weight gain with dwarf rats (day 6, 120 μg/day by pump) amounted to 4.2 ± 0.6 g. Also, the “^3H-thymidine incorporation” value with mouse 3T3 cells is “no activity”. In the test with male Wistar rats (Study One), the “plasma insulin levels, % of that of the control group” value was 25%; the “time plasma insulin remained depressed” value came to 60 min; the “fall in blood glucose” value is recorded as “brief but statistically significant”. Moreover, in the test on male Wistar rats (Study Two), the “time plasma insulin remained depressed” value was no less than 120 min; the “fall in blood glucose” value is listed as “small but statistically significant fall in blood glucose”; the plasma insulin response result is “fall in insulin concentrations of a similar magnitude and degree of statistical significance”.
